Tested on: 317291-083-R-J1-PDC complex spheroids, viability
Assay: Anticancer human tumor 317291-083-R-J1-PDC patient-derived soft tissue sarcoma cell line growth inhibition [GQUAD]
Conditions: for IC50: curve of first compound; for viability, T/C: stronger effect = lower value
Procedure, shortened: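 Multi-cell-type spheroids of tumor cells with HUVEC and mesenchymal stem cells, treated with drug combinations. Concentrations descend in half-log steps from near clinical Cmax, or from 10 microM where Cmax is unknown; viability read-out.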

[1] = second compound 0.0316 µM, first compound 0.0316 µM
[2] = second compound 0.0316 µM, first compound 0.316 µM
[3] = second compound 0.1 µM, first compound 0.0316 µM
[4] = second compound 0.1 µM, first compound 0.316 µM
[5] = second compound 0.316 µM, first compound 0.0316 µM
[6] = second compound 0.316 µM, first compound 0.316 µM
[7] = second compound 1 µM, first compound 0.0316 µM
[8] = second compound 1 µM, first compound 0.316 µM
[9] = second compound 3.16 µM, first compound 0.0316 µM
[10] = second compound 3.16 µM, first compound 0.316 µM
[11] = second compound 10 µM, first compound 0.0316 µM
[12] = second compound 10 µM, first compound 0.316 µM
[13] = second compound 0.0316 µM, first compound 0.1 µM
[14] = second compound 0.0316 µM, first compound 1 µM
[15] = second compound 0.0316 µM, first compound 3.16 µM
[16] = second compound 0.0316 µM, first compound 10 µM
[17] = second compound 0.1 µM, first compound 0.1 µM
[18] = second compound 0.1 µM, first compound 1 µM
[19] = second compound 0.1 µM, first compound 3.16 µM
[20] = second compound 0.1 µM, first compound 10 µM
[21] = second compound 0.316 µM, first compound 0.1 µM
[22] = second compound 0.316 µM, first compound 1 µM
[23] = second compound 0.316 µM, first compound 3.16 µM
[24] = second compound 0.316 µM, first compound 10 µM
[25] = second compound 1 µM, first compound 0.1 µM
[26] = second compound 1 µM, first compound 1 µM
[27] = second compound 1 µM, first compound 3.16 µM
[28] = second compound 1 µM, first compound 10 µM
[29] = second compound 3.16 µM, first compound 0.1 µM
[30] = second compound 3.16 µM, first compound 1 µM
[31] = second compound 3.16 µM, first compound 3.16 µM
[32] = second compound 3.16 µM, first compound 10 µM
[33] = second compound 10 µM, first compound 0.1 µM
[34] = second compound 10 µM, first compound 1 µM
[35] = second compound 10 µM, first compound 3.16 µM
[36] = second compound 10 µM, first compound 10 µM
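Further: spheroids exposed to compounds for one week before readout.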
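Wherever viability, T/C is given: percent viability relative to DMSO vehicle wells taken as 100%.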

Question: For CCc1c2c(nc3ccc(O)cc13)-c1cc3c(c(=O)n1C2)COC(=O)[C@]3(O)CC + CN(C)c1ccc(Nc2c3ccc(NC(=O)CCN4CCCC4)cc3nc3cc(NC(=O)CCN4CCCC4)ccc23)cc1, which IC50 (second compound 0.0316 µM) is on record?
Answer: 1.31 nM

Question: And the IC50 (second compound 0.1 µM)?
Answer: 1.65 nM

Question: And the IC50 (second compound 0.316 µM)?
Answer: < 0.999 nM

Question: And the IC50 (second compound 1 µM)?
Answer: < 0.999 nM

Question: And the IC50 (second compound 3.16 µM)?
Answer: < 0.999 nM

Question: And the IC50 (second compound 10 µM)?
Answer: < 0.999 nM

Question: And the viability, T/C (second compound 0.0316 µM, first compound 0.000999 µM)?
Answer: 58%

Question: What about the viability, T/C (second compound 0.0316 µM, first compound 0.00316 µM) of the same compound?
Answer: 24.2%

Question: And the viability, T/C (second compound 0.0316 µM, first compound 0.00999 µM)?
Answer: 15.7%

Question: What about the viability, T/C [1] of the same compound?
Answer: 10.1%

Question: What about the viability, T/C (second compound 0.0316 µM, first compound 0.0999 µM) of the same compound?
Answer: 7.96%

Question: What about the viability, T/C [2] of the same compound?
Answer: 5.2%

Question: What about the viability, T/C (second compound 0.1 µM, first compound 0.000999 µM) of the same compound?
Answer: 65.8%

Question: What about the viability, T/C (second compound 0.1 µM, first compound 0.00316 µM) of the same compound?
Answer: 28.6%

Question: What about the viability, T/C (second compound 0.1 µM, first compound 0.00999 µM) of the same compound?
Answer: 17.5%

Question: And the viability, T/C [3]?
Answer: 10.9%

Question: And the viability, T/C (second compound 0.1 µM, first compound 0.0999 µM)?
Answer: 9.19%

Question: What about the viability, T/C [4] of the same compound?
Answer: 5.38%

Question: And the viability, T/C (second compound 0.316 µM, first compound 0.000999 µM)?
Answer: 48.7%

Question: What about the viability, T/C (second compound 0.316 µM, first compound 0.00316 µM) of the same compound?
Answer: 24.2%

Question: What about the viability, T/C (second compound 0.316 µM, first compound 0.00999 µM) of the same compound?
Answer: 15.5%

Question: What about the viability, T/C [5] of the same compound?
Answer: 13.7%

Question: What about the viability, T/C (second compound 0.316 µM, first compound 0.0999 µM) of the same compound?
Answer: 8.7%

Question: What about the viability, T/C [6] of the same compound?
Answer: 5.23%

Question: What about the viability, T/C (second compound 1 µM, first compound 0.000999 µM) of the same compound?
Answer: 28.4%

Question: What about the viability, T/C (second compound 1 µM, first compound 0.00316 µM) of the same compound?
Answer: 15.4%

Question: What about the viability, T/C (second compound 1 µM, first compound 0.00999 µM) of the same compound?
Answer: 10.4%

Question: What about the viability, T/C [7] of the same compound?
Answer: 5.97%

Question: And the viability, T/C (second compound 1 µM, first compound 0.0999 µM)?
Answer: 7.46%

Question: And the viability, T/C [8]?
Answer: 3.88%

Question: What about the viability, T/C (second compound 3.16 µM, first compound 0.000999 µM) of the same compound?
Answer: 20.7%

Question: And the viability, T/C (second compound 3.16 µM, first compound 0.00316 µM)?
Answer: 9.56%

Question: What about the viability, T/C (second compound 3.16 µM, first compound 0.00999 µM) of the same compound?
Answer: 7.45%

Question: What about the viability, T/C [9] of the same compound?
Answer: 4.96%

Question: And the viability, T/C (second compound 3.16 µM, first compound 0.0999 µM)?
Answer: 4.76%

Question: And the viability, T/C [10]?
Answer: 2.38%

Question: What about the viability, T/C (second compound 10 µM, first compound 0.000999 µM) of the same compound?
Answer: 8.21%

Question: What about the viability, T/C (second compound 10 µM, first compound 0.00316 µM) of the same compound?
Answer: 7.57%

Question: What about the viability, T/C (second compound 10 µM, first compound 0.00999 µM) of the same compound?
Answer: 4.2%

Question: What about the viability, T/C [11] of the same compound?
Answer: 2.29%

Question: And the viability, T/C (second compound 10 µM, first compound 0.0999 µM)?
Answer: 2.45%

Question: What about the viability, T/C [12] of the same compound?
Answer: 2.41%

Question: With C#Cc1c(F)ccc2cc(O)cc(-c3ncc4c(N5CC6CCC(C5)N6)nc(OCC56CCCN5CC(F)C6)nc4c3F)c12 (stereo unspecified) + CN(C)c1ccc(Nc2c3ccc(NC(=O)CCN4CCCC4)cc3nc3cc(NC(=O)CCN4CCCC4)ccc23)cc1 as the compound, how does the IC50 (second compound 0.0316 µM) read?
Answer: 5660 nM

Question: And the IC50 (second compound 0.1 µM)?
Answer: 5140 nM

Question: What about the IC50 (second compound 0.316 µM) of the same compound?
Answer: 1010 nM

Question: And the IC50 (second compound 1 µM)?
Answer: < 31.6 nM

Question: And the IC50 (second compound 3.16 µM)?
Answer: < 31.6 nM

Question: And the IC50 (second compound 10 µM)?
Answer: < 31.6 nM

Question: And the viability, T/C [1]?
Answer: 111%

Question: And the viability, T/C [13]?
Answer: 90.8%

Question: What about the viability, T/C [2] of the same compound?
Answer: 106%

Question: And the viability, T/C [14]?
Answer: 107%

Question: And the viability, T/C [15]?
Answer: 68%

Question: What about the viability, T/C [16] of the same compound?
Answer: 32.4%

Question: And the viability, T/C [3]?
Answer: 91.3%

Question: What about the viability, T/C [17] of the same compound?
Answer: 98.9%

Question: What about the viability, T/C [4] of the same compound?
Answer: 89.5%

Question: And the viability, T/C [18]?
Answer: 86.2%

Question: What about the viability, T/C [19] of the same compound?
Answer: 64.8%

Question: What about the viability, T/C [20] of the same compound?
Answer: 29.6%

Question: What about the viability, T/C [5] of the same compound?
Answer: 72.7%

Question: And the viability, T/C [21]?
Answer: 74.4%

Question: And the viability, T/C [6]?
Answer: 62.9%

Question: And the viability, T/C [22]?
Answer: 49.9%

Question: What about the viability, T/C [23] of the same compound?
Answer: 47.9%

Question: And the viability, T/C [24]?
Answer: 42.1%

Question: And the viability, T/C [7]?
Answer: 46.9%

Question: What about the viability, T/C [25] of the same compound?
Answer: 35%

Question: What about the viability, T/C [8] of the same compound?
Answer: 27.5%

Question: And the viability, T/C [26]?
Answer: 19.7%

Question: What about the viability, T/C [27] of the same compound?
Answer: 17.1%

Question: What about the viability, T/C [28] of the same compound?
Answer: 0.42%

Question: And the viability, T/C [9]?
Answer: 5.12%

Question: What about the viability, T/C [29] of the same compound?
Answer: 2.52%

Question: What about the viability, T/C [10] of the same compound?
Answer: 4.56%

Question: And the viability, T/C [30]?
Answer: 2.64%

Question: And the viability, T/C [31]?
Answer: 1.07%

Question: And the viability, T/C [32]?
Answer: 0.36%

Question: And the viability, T/C [11]?
Answer: 0.32%

Question: And the viability, T/C [33]?
Answer: 0.73%

Question: What about the viability, T/C [12] of the same compound?
Answer: 0.29%

Question: And the viability, T/C [34]?
Answer: 0.39%

Question: What about the viability, T/C [35] of the same compound?
Answer: 0.24%

Question: What about the viability, T/C [36] of the same compound?
Answer: 0.39%

Question: With CC1COCCN1c1cc(-c2ccnn2C)c2ccnc(-c3ccn[nH]3)c2n1 (stereo unspecified) + Cc1cnc(CNC(=O)c2c(=O)c3ccc(N4CCCN(C)CC4)nc3n3c2sc2ccccc23)cn1 as the compound, how does the IC50 (second compound 0.0316 µM) read?
Answer: < 31.6 nM

Question: And the IC50 (second compound 0.1 µM)?
Answer: 39.5 nM

Question: And the IC50 (second compound 0.316 µM)?
Answer: < 31.6 nM

Question: And the IC50 (second compound 1 µM)?
Answer: < 31.6 nM

Question: What about the IC50 (second compound 3.16 µM) of the same compound?
Answer: < 31.6 nM

Question: What about the IC50 (second compound 10 µM) of the same compound?
Answer: < 31.6 nM

Question: What about the viability, T/C [1] of the same compound?
Answer: 49.6%

Question: And the viability, T/C [13]?
Answer: 19.1%

Question: What about the viability, T/C [2] of the same compound?
Answer: 13%

Question: And the viability, T/C [14]?
Answer: 10.9%

Question: And the viability, T/C [15]?
Answer: 23.9%

Question: And the viability, T/C [16]?
Answer: 12.7%

Question: What about the viability, T/C [3] of the same compound?
Answer: 59%

Question: And the viability, T/C [17]?
Answer: 12.5%

Question: What about the viability, T/C [4] of the same compound?
Answer: 9.96%

Question: And the viability, T/C [18]?
Answer: 15.6%

Question: What about the viability, T/C [19] of the same compound?
Answer: 11.6%

Question: What about the viability, T/C [20] of the same compound?
Answer: 11.4%

Question: What about the viability, T/C [5] of the same compound?
Answer: 35.6%

Question: What about the viability, T/C [21] of the same compound?
Answer: 14.6%

Question: And the viability, T/C [6]?
Answer: 12.3%

Question: And the viability, T/C [22]?
Answer: 11%

Question: What about the viability, T/C [23] of the same compound?
Answer: 13.2%

Question: What about the viability, T/C [24] of the same compound?
Answer: 16.6%

Question: What about the viability, T/C [7] of the same compound?
Answer: 25.1%

Question: What about the viability, T/C [25] of the same compound?
Answer: 25.1%

Question: What about the viability, T/C [8] of the same compound?
Answer: 11.3%

Question: And the viability, T/C [26]?
Answer: 9.59%

Question: And the viability, T/C [27]?
Answer: 20.1%

Question: And the viability, T/C [28]?
Answer: 11.5%

Question: What about the viability, T/C [9] of the same compound?
Answer: 11.3%

Question: What about the viability, T/C [29] of the same compound?
Answer: 8.19%

Question: And the viability, T/C [10]?
Answer: 9.69%

Question: And the viability, T/C [30]?
Answer: 12.1%

Question: What about the viability, T/C [31] of the same compound?
Answer: 17.1%

Question: And the viability, T/C [32]?
Answer: 11.5%

Question: And the viability, T/C [11]?
Answer: 11.8%

Question: What about the viability, T/C [33] of the same compound?
Answer: 11.6%

Question: And the viability, T/C [12]?
Answer: 13.7%

Question: What about the viability, T/C [34] of the same compound?
Answer: 8.98%

Question: What about the viability, T/C [35] of the same compound?
Answer: 11.4%

Question: And the viability, T/C [36]?
Answer: 18.6%
